Reference: PubChem BioAssay (NCI)
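How tested: cells in 96-well plates exposed to compound for 48 hours at five concentrations. GI50 = concentration required for 50% inhibition of growth. Definition used: TGI = concentration required for complete inhibition of growth.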 Where a SMILES comes first, the peptide text is derived from it. The star is where a group is joined. Boc = CC(C)(C)OC(=O)*

Tests used:
Experiment in all cases: growth of human tumour cells (NCI), 48 h
786-0 renal = system: 786-0 renal
BT-549 breast = system: BT-549 breast
KM12 colon = system: KM12 colon
MDA-N = system: MDA-N
NCI/ADR-RES ovarian = system: NCI/ADR-RES ovarian
OVCAR-3 ovarian = system: OVCAR-3 ovarian
OVCAR-5 ovarian = system: OVCAR-5 ovarian
SK-MEL-5 melanoma = system: SK-MEL-5 melanoma
TK-10 renal = system: TK-10 renal
U251 CNS = system: U251 CNS
HCC-2998 colon = system: HCC-2998 colon

SMILES | TGI (786-0 renal) | TGI (BT-549 breast) | TGI (KM12 colon) | TGI (MDA-N) | TGI (NCI/ADR-RES ovarian) | TGI (OVCAR-3 ovarian) | TGI (OVCAR-5 ovarian) | TGI (SK-MEL-5 melanoma) | TGI (TK-10 renal) | TGI (U251 CNS) | TGI (HCC-2998 colon) | GI50 (MDA-N) | GI50 (OVCAR-5 ovarian) | GI50 (SK-MEL-5 melanoma)
CC(=O)Oc1ccc2c3c1O[C@H]1[C@H](O)CC[C@@]4(O)[C@@H](C2)N(C)CC[C@]314 | > 100 µM | > 100 µM | > 100 µM | > 100 µM | > 100 µM | > 100 µM | > 100 µM | > 100 µM | > 100 µM | > 100 µM | – | – | – | –
CNC1(C(=O)O)CC1 | > 100 µM | – | > 100 µM | > 100 µM | > 100 µM | > 100 µM | > 100 µM | > 100 µM | > 100 µM | > 100 µM | > 100 µM | – | – | –
CC1(C)N=C(C2CCCN2C(=O)OCc2ccccc2)OC1=O (configuration not stated) | > 100 µM | > 100 µM | > 100 µM | > 100 µM | > 100 µM | > 100 µM | > 100 µM | > 100 µM | > 100 µM | > 100 µM | > 100 µM | – | – | –
CC1C(C#N)(C#N)C(C#N)=C(N)C1(Cl)[N+](=O)[O-] (configuration not stated) | 18.1 µM | 26.3 µM | 34.4 µM | 21.3 µM | 34.2 µM | 22 µM | 29.6 µM | 25.4 µM | 28.2 µM | 34.4 µM | 31.8 µM | – | – | –
COC(=O)[C@H](Cc1ccc(O)cc1)NC(=O)[C@H](Cc1ccc(O)cc1)NC(=O)OC(C)(C)C (Boc-Tyr-Tyr-OMe) | > 100 µM | > 100 µM | > 100 µM | > 100 µM | > 100 µM | > 100 µM | > 100 µM | > 100 µM | > 100 µM | – | > 100 µM | – | – | –
O=C(OCCNC(=O)N1CC1)OCCNC(=O)N1CC1 | > 10 µM | > 10 µM | > 10 µM | > 10 µM | > 10 µM | > 10 µM | > 10 µM | > 10 µM | > 10 µM | > 10 µM | > 10 µM | – | – | –
COc1cccc(/C=C2\S/C(=N/Nc3nc(-c4ccc([N+](=O)[O-])cc4)cs3)NC2=O)c1O | 38.9 µM | 20 µM | 26.9 µM | 57.5 µM | 53.3 µM | 30.1 µM | 54.7 µM | 25.5 µM | 67.6 µM | 7.66 µM | 33.7 µM | – | – | –
CSc1nc2c(c(=O)[nH]1)N=C(c1ccccc1)CC(c1ccccc1)N2 (configuration not stated) | > 100 µM | > 100 µM | 29.2 µM | 46.6 µM | > 100 µM | > 100 µM | > 100 µM | 88.4 µM | – | > 100 µM | > 100 µM | – | – | –
Cc1n(Cc2ccccc2)nc2sc(N)n[n+]12 | > 100 µM | > 100 µM | > 100 µM | > 100 µM | > 100 µM | > 100 µM | > 100 µM | > 100 µM | > 100 µM | > 100 µM | – | – | – | –
Cn1cc(-c2csc(-c3cn(C)c4ccccc34)n2)c2ccccc21 | > 100 µM | > 100 µM | > 100 µM | > 100 µM | > 100 µM | 64 µM | > 100 µM | > 100 µM | > 100 µM | > 100 µM | – | – | – | –
COc1ccc(/C=C2\C[C@H]3[C@@H]4CCC5=CC(=O)CC[C@]5(C)[C@H]4CC[C@]3(C)C2=O)cc1OC | > 100 µM | > 100 µM | > 100 µM | > 100 µM | > 100 µM | > 100 µM | > 100 µM | 5.45 µM | – | – | > 100 µM | – | – | –
CCOC(=O)c1c(NC(=S)Nc2ccccc2)sc2c1CCOC2 | > 100 µM | 58 µM | > 100 µM | > 100 µM | > 100 µM | > 100 µM | > 100 µM | > 100 µM | > 100 µM | > 100 µM | > 100 µM | – | – | –
CCN1CN(c2ccccc2)C2(CCN(CC(CC3OCCO3)c3ccc(F)cc3)CC2)C1=O (configuration not stated) | 39 µM | 53.2 µM | 17.5 µM | > 26.3 µM | > 92.7 µM | 50.7 µM | 25.4 µM | 15.2 µM | > 46.7 µM | 38.9 µM | 46.1 µM | – | – | –
C=C1C[C@H](O)[C@H](Br)C(C)(C)C12CCC(C)(Cl)C(Br)C2 (some centres not stated) | 15.4 µM | 18.5 µM | 9.88 µM | 10.8 µM | 20.7 µM | 15.7 µM | 4.25 µM | 12.2 µM | 13.1 µM | 8.91 µM | 15.5 µM | – | – | –
CCOC(=O)c1cccc(NC(=O)CI)c1 | 0.307 µM | 1.48 µM | 3.66 µM | 0.472 µM | 1.96 µM | 0.759 µM | 3.07 µM | 1.22 µM | 2.19 µM | 1.35 µM | 4.34 µM | – | – | –
O=c1oc2c(Cl)cc(Cl)cc2cc1C1=CSC2=NCCN12 | > 100 µM | 74.4 µM | > 100 µM | > 100 µM | > 100 µM | 92.9 µM | > 100 µM | 88.8 µM | > 100 µM | > 100 µM | – | – | – | –
Cc1ccc(C(=O)N/N=C(\N=Nc2ccc(C(=O)O)cc2)c2ccc(N(CCC#N)CCC#N)cc2C)cc1 | > 100 µM | > 100 µM | > 100 µM | > 100 µM | > 100 µM | > 100 µM | > 100 µM | > 100 µM | > 100 µM | > 100 µM | > 100 µM | – | – | –
COc1cc(OC)c2[nH]c3c(O)c(-c4c(C)cc5c([nH]c6c(OC)cc(OC)cc65)c4O)c(C)cc3c2c1 | 15.1 µM | 16.1 µM | 23.8 µM | 15.7 µM | 16.6 µM | 18.6 µM | 16.2 µM | 15.2 µM | 17.9 µM | 50 µM | 15.3 µM | 8.83 µM | 9.03 µM | 8.38 µM
O=C(N/N=C(/COc1ccccc1)N=Cc1cccnc1)c1ccncc1 | > 100 µM | > 100 µM | > 100 µM | > 100 µM | > 100 µM | > 100 µM | > 100 µM | – | > 100 µM | > 100 µM | > 100 µM | – | – | –
Cc1ccc2c(/C=C/c3ccc(N(C)C)cc3)ccc(C(C)C)cc1-2 | > 100 µM | > 100 µM | > 100 µM | > 100 µM | > 100 µM | > 100 µM | > 100 µM | > 100 µM | > 100 µM | > 100 µM | – | – | – | –
